From a melting point compilation (Tetko et al.; mined from patent text by program, amines drawn as free bases though some values may be those of a salt)

With `O=C(c1ccco1)N1CCN(c2cc(-c3ccccc3)c3c(n2)CCCC3)CC1` as the molecule, how does the melting point read?
The melting point was 128 to 130 °C.

For `N#CC(=Cc1ccccc1F)C(O)C#N` (stereo unspecified), which melting point is on record?
The melting point was 122 °C.

Which melting point does the source give for `CS(=O)(=O)c1ccc(-c2sc(COc3cccc(Cl)c3)nc2-c2ccc(F)cc2)cc1` here?
The melting point was 128 to 131 °C.

With `Cc1ccc(-c2cn3ccc(Cl)cc3n2)cc1C` as the molecule, how does the melting point read?
Its melting point is 144 °C.

For `N#CCc1ccc2oc3ncccc3c(=O)c2c1`, which melting point is on record?
The melting point was 198 to 201 °C.

Which melting point does the source give for `OCc1ccc2c(n1)C(CNCCCCCCOCCC#Cc1ccc(F)cc1)OC(c1ccccc1)O2` (stereo unspecified) here?
The melting point was 83 to 85 °C.

For `COc1cc(C=O)cc(C#N)c1OC`, which melting point is on record?
The melting point was 109 to 112 °C.

With `Cc1cccc(C)c1CNc1cc(C2=NCCN2)cc2c1nc(C)n2C` as the molecule, how does the melting point read?
The melting point was 273 to 274 °C.

With `O=C(O)/C=C/n1cnc2ccc(C3CC3)cc2c1=O` as the molecule, how does the melting point read?
The melting point was 291 to 293 °C.

With `O=C(NCCc1ccccc1)c1ccc(Cl)nc1` as the molecule, how does the melting point read?
Its melting point is 95 to 96 °C.

For `C[C@H]1C(=O)Nc2ccc(Cl)cc2N1C(=O)OCCBr`, which melting point is on record?
Its melting point is 133 to 136 °C.

Which melting point does the source give for `CN(Cc1ccccc1)C1CCN(C(=O)c2ccc(-n3cncn3)cc2)CC1` here?
The melting point was 168 to 169 °C.

Which melting point does the source give for `C=Cc1cc(OS(=O)(=O)c2ccc(C)cc2)c(OC)cc1C#N` here?
Its melting point is 149 to 150 °C.

Which melting point does the source give for `Cn1ncnc1COc1nc2c(cc1C1CCC1)nnn2-c1ccccc1F` here?
The melting point was 120 to 122 °C.

For `O=C(CCOCc1ccc2ccccc2c1)c1ccccc1`, which melting point is on record?
Its melting point is 56 to 57 °C.

For `COC1CCC2(C)C(=CC(=O)C3C4CCC(=O)C4(C)CCC32)C1` (stereo unspecified), which melting point is on record?
Its melting point is 227 to 229 °C.

Which melting point does the source give for `Nc1ncc([N+](=O)[O-])cc1[N+](=O)[O-]` here?
The melting point was 190 to 191 °C.

With `O=C(NC1CC1)c1ccc(N2CCNCC2)cc1` as the molecule, how does the melting point read?
Its melting point is 175 to 177 °C.

With `CC(C)(C)OC(=O)N1CCC(c2nc3cc(-c4ccc(C(F)(F)F)cc4)ccc3o2)CC1` as the molecule, how does the melting point read?
Its melting point is 166 to 169 °C.

Which melting point does the source give for `CNC(=S)CC(=S)N(c1c(C)cccc1C)C(C)C(=O)OC` (stereo unspecified) here?
The melting point was 119 to 121 °C.

For `Nc1nnc(-c2ccc3ncn(-c4ccc(OC(F)(F)F)c(Cl)c4)c3c2)o1`, which melting point is on record?
Its melting point is 238 to 239 °C.

With `COc1nnccc1-c1ccccc1OCC(O)CNC(C)(C)C` (stereo unspecified) as the molecule, how does the melting point read?
The melting point was 110 °C.

For `COC(=O)C=CC(=O)c1ccc(Oc2ccccc2)cc1`, which melting point is on record?
Its melting point is 88 to 90 °C.

For `Clc1ccc(-c2ccc(-c3ccccc3)s2)s1`, which melting point is on record?
The melting point was 128 to 132 °C.

For `C=C(C)C(=O)OCCCCCCS(=O)(=O)c1ccc(O)c(C)c1`, which melting point is on record?
Its melting point is 84 to 85 °C.

Which melting point does the source give for `CCOC1=C(C#N)C(c2ccccc2)=C2C(=O)N(CC)C(c3ccccc3)=C12` here?
Its melting point is 200 to 202 °C.

With `CCc1ccc(Nc2c(F)c(F)cc(F)c2F)c(CC(=O)N(C)C)c1` as the molecule, how does the melting point read?
Its melting point is 105 to 106 °C.

Which melting point does the source give for `CC1(C)[C@H](C(=O)OCc2cnc(Cc3ccccc3)s2)[C@@H]1C=C(Br)Br` here?
The melting point was 66 °C.

Which melting point does the source give for `COc1cc2c(cc1OC)N(C)C(=O)CN=C2c1cccc(C=O)c1` here?
Its melting point is 175 to 178 °C.

With `CC(CC#N)C(C#N)(c1ccc(N2CCOCC2)c([N+](=O)[O-])c1)N1CCOCC1` (stereo unspecified) as the molecule, how does the melting point read?
Its melting point is 175 to 177 °C.

For `CCOc1cc2c(c3c1OC(C)(C)C3)C(c1cccc(N3C(=O)CNC3=O)c1)=NC(C)(C)C2`, which melting point is on record?
The melting point was 202 to 204 °C.

With `CCC(C)OC(=O)C(C(=O)Nc1nc(C)cs1)=C1SCS1` (stereo unspecified) as the molecule, how does the melting point read?
The melting point was 153 to 154 °C.

With `Cn1ncnc1COc1nn2c(-c3ccccc3F)nncc2c1-c1c(F)cccc1F` as the molecule, how does the melting point read?
Its melting point is 196 °C.

Which melting point does the source give for `CC(C)(C)OC(=O)N1CCC(n2nnc(-c3cnc(-c4ccccc4)nc3)n2)CC1` here?
The melting point was 178 to 180 °C.

Which melting point does the source give for `N#CCc1cccc2c(-c3ccccc3Cl)nccc12` here?
The melting point was 113 °C.

With `CC1(CO)Cc2c(cc(C(C)(C)C)c(O)c2C(C)(C)C)O1` (stereo unspecified) as the molecule, how does the melting point read?
Its melting point is 126 to 128 °C.

Which melting point does the source give for `CCOC(=O)Cc1sc(S)nc1-c1ccc(Cl)cc1` here?
The melting point was 176 to 178 °C.

For `CCc1ccc(S(=O)(=O)N(c2ccc(Cl)cc2[N+](=O)[O-])C(C)C)cc1`, which melting point is on record?
Its melting point is 117 to 118 °C.

With `O=C(OC1COC(OC(=O)c2ccccc2)CO1)c1ccccc1` (stereo unspecified) as the molecule, how does the melting point read?
Its melting point is 187 to 189 °C.

With `COc1csc(C(=O)C2C(=O)N(C(N)=O)c3ccc(Cl)cc32)c1` (stereo unspecified) as the molecule, how does the melting point read?
Its melting point is 221 to 223 °C.

With `CC(C)c1c(Cl)[nH]c(=O)[nH]c1=O` as the molecule, how does the melting point read?
Its melting point is 250 to 251 °C.
